Assays:
[1] = tested on: d(5′-CGCGAATTCGCG-3′)2 (DNA, duplex) CGCGAATTCGCG; test: ethidium bromide displacement, fluorescence quenching, double-log plot; details: 100 mM phosphate; pH 7.0, 298 K; apparent; ethidium bromide displaced; 20 μM DNA
[2] = tested on: d(5′-CGCGAATTCGCG-3′)2 (DNA, duplex) CGCGAATTCGCG; test: 1H NMR titration, NOESY; details: 100 mM phosphate, pH 7.0, 298 K, H2O:D2O 9:1

SMILES	Kb [1]	binding ([2]; 10 mM NaCl, partial intercalation T7/T8 and groove, precipitates without NaCl)	binding ([2]; minor and major groove, non-specific)
[Ru+2].c1cc[cH-]c1.c1ccc(-c2ccc(-c3ccccc3)cc2)cc1	3.532 ± 0.001 × 10^3 M^−1	–	–
[Ru+2].c1cc[cH-]c1.c1ccc(-c2ccccc2)cc1	2.330 ± 0.001 × 10^3 M^−1	–	–
[Ru+2].c1cc[cH-]c1.c1ccc(-c2ccc(-c3ccc(-c4ccccc4)cc3)cc2)cc1	8.111 ± 0.001 × 10^3 M^−1	yes	–
[Ru+2].[Ru+2].[Ru+2].c1cc[cH-]c1.c1cc[cH-]c1.c1cc[cH-]c1.c1ccc(-c2ccc(-c3ccc(-c4ccccc4)cc3)cc2)cc1	2.803 ± 0.121 × 10^3 M^−1	–	–
[Ru+2].[Ru+2].c1cc[cH-]c1.c1cc[cH-]c1.c1ccc(-c2ccc(-c3ccccc3)cc2)cc1	0.815 ± 0.001 × 10^3 M^−1	–	–
[Ru+2].[Ru+2].c1cc[cH-]c1.c1cc[cH-]c1.c1ccc(-c2ccc(-c3ccc(-c4ccccc4)cc3)cc2)cc1	5.933 ± 0.001 × 10^3 M^−1	–	yes

Reference: paper PMC10780011 (2023)
